The series in a line: Dissolution of doxazosin mesylate in recrystallisation solvents. It counts as physicochemical. The source says:
Although doxazosin is mostly used as monomesylate, the preparation of this salt has not to date been described. […] The product isolated after cooling the suspension contains chloroform, which is a solvent which is objectionable from the toxicological viewpoint and which can be removed only with difficulty and not without adverse effects on the active ingredient. […] In addition, the yield is poor and the material proves to be X-ray amorphous. […] Hot filtration of the suspension affords a small yield of the described ethanol modification A as residue on the filter. Cooling the filtrate results in only a moderate yield of impure A modification.

Structures can show the parent of a compound that is named as a salt.

For the compound `COc1cc2nc(N3CCN(C(=O)C4COc5ccccc5O4)CC3)nc(N)c2cc1OC` (stereo not drawn) [doxazosin mesylate, 4-amino-2-[4-(1,4-benzodioxane-2-carbonyl)piperazin-1-yl]-6,7-dimethoxyquinazoline], the solubility in chloroform result (75 times the amount of chloroform at the boiling point) is recorded as “does not dissolve”. In addition, the solubility in ethanol result (350 times the amount of ethanol at the boiling point of the solvent) was “does not dissolve”. Besides, the solubility in water entry (water, compared with chloroform) is recorded as “dissolves better in water”.
